# Molecular target: T1, His6-MoxR (Riemerella anatipestifer, UniProt E4TDR4)
# T1 construct: gene RA0C_2065
# Settings: 37 °C, 1 h; ATP or His6-MoxR concentration varied
# T1 sequence (E4TDR4 entry or part of it): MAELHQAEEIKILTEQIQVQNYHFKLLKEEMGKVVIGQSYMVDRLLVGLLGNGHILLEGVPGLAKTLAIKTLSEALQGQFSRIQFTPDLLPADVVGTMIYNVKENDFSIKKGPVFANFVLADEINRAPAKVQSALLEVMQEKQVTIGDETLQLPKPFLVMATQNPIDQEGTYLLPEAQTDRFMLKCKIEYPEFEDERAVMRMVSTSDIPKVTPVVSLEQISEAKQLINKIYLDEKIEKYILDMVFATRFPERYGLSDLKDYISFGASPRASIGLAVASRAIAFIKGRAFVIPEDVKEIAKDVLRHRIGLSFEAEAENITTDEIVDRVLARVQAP
structure (smiles),measurement,value
Nc1ncnc2c1ncn2[C@@H]1O[C@H](COP(=O)(O)OP(=O)(O)OP(=O)(O)O)[C@@H](O)[C@H]1O [ATP],"phosphate release, molybdenum blue, absorbance at 660 nm",concentration of phosphate groups in each reaction system increased with higher amounts of His6-MoxR and ATP

# Reference: PMC11834572, “MoxR effects as an ATPase on anti-stress and pathogenicity of Riemerella anatipestifer” (Veterinary Research, 2025)
